Measured values reported in publication PMC10614203, “Synthesis, Structure–Activity Relationships, Radiofluorination, and Biological Evaluation of [^18F]RM365, a Novel Radioligand for Imaging the Human Cannabinoid Receptor Type 2 (CB2R) in the Brain with PET” (Journal of Medicinal Chemistry, 2023).
Values joined by “and” are separate entries in the source; they are usually repeats but may differ in a detail not shown here. Equal values may be shown once.

How the values were obtained:
rat CB2R = molecular target: T1, rat CB2R (Rattus norvegicus, UniProt Q9QZN9); test: In vitro autoradiography on rat spleen cryosections; type: binding; conditions: Figure S2
T1 construct: one spleen from a female SPRD rat expressing high levels of the receptor in the leukocytes; from tissue; host or cells: rat spleen (female SPRD rat; autoradiography also described with male F433 rats)
T1 sequence (Q9QZN9 1-360): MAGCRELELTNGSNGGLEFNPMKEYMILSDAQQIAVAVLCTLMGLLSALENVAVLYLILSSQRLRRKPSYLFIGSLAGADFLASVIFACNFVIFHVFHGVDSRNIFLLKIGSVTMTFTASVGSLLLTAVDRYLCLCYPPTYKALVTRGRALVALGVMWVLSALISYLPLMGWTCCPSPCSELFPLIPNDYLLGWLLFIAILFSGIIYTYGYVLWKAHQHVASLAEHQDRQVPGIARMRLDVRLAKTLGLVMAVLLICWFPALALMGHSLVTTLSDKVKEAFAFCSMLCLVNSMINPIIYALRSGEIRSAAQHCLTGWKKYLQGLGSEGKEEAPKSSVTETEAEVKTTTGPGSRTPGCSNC
Text: (§1) To complement the indirect determination of the affinity of RM365 toward the CB2R in vitro, we performed a direct binding study with the radiofluorinated ligand using preparations of CHO cells stably transfected with the cloned human receptor and one spleen from a female SPRD rat expressing high levels of the receptor in the leukocytes.[12] The results of the homologous competition study shown in Figure 6 confirm the good affinity of [^18F]RM365 toward the human CB2R with a KD value of about 2 nM. […] Furthermore, the measurement signal obtained from the incubation of [^18F]RM365 with the homogenate of rat spleen was in the range of the values obtained for the nonspecific binding of the radioligand toward the preparation of CB2R-transfected CHO cells. We conclude that RM365 binds the rat CB2R with lower affinity than the human CB2R but expect no significant interactions of the radioligand with nonspecific binding sites.[82] Because of the available rat model to assess the potential of [^18F]RM365 to cross the blood–brain barrier and to specifically label human CB2R—the hCB2R(D80N) model with high expression of human CB2R in the brain[31],[32],[66],[83]—we intended to confirm the initial findings from the rat homogenate by an autoradiographic study.
The in vitro autoradiographic experiments were performed according to a previously published protocol.[88] […]

hCB2R = molecular target: T2, hCB2R (Homo sapiens, UniProt P34972); test: Homologous competition binding of [18F]RM365 / RM365 on membranes of hCB2R-CHO cells
T2 construct: host or cells: CHO cells, stably transfected
T2 sequence (P34972 whole entry): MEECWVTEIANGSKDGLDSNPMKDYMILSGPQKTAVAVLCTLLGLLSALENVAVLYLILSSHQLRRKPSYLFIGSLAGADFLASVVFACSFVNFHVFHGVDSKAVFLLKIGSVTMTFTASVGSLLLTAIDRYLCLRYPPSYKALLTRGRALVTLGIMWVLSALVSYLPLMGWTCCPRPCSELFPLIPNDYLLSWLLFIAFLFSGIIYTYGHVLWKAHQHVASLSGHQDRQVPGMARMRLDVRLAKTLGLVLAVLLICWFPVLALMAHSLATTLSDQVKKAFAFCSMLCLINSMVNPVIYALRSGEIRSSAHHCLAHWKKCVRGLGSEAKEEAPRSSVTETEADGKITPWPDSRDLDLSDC
Text: as §1, with “Because of the available rat model to assess the potential of [^18F]RM365 to cross the blood–brain barrier and to specifically label human CB2R—the hCB2R(D80N) model with high expression of human CB2R in the brain[31],[32],[66],[83]—we intended to confirm the initial findings from the rat homogenate by an autoradiographic study.” left out
The nonspecific binding of the respective radioligand was determined by coincubation with CP55,940 (final concentration 10^–5 M). The normalized values of bound activity (% specific binding) were calculated and plotted vs the logarithm of the concentration of the respective test compound. […]

CC1(C)Cc2ccc(C#N)cc2[C@@H]1NC(=O)c1cc2cc([18F])ccc2[nH]1 [[^18F]RM365]
specific interaction with rat CB2R in spleen cryosections, in words (rat CB2R): absence of a specific interaction
IC50 (hCB2R; 0.078 nM [18F]RM365, increasing concentrations of RM365): 2.4 nM
Kd (hCB2R; 0.078 nM [18F]RM365, single experiment in triplicate, KD = IC50 - concentration radioligand): 2.32 nM and ~2 nM
